Patent US20260256792A1, “TREATMENT OF CHRONIC SPONTANEOUS URTICARIA BY ADMINISTERING (R)-2-[3-[4-AMINO-3-(2-FLUORO-4-PHENOXY-PHENYL)PYRAZOLO[3,4-D]PYRIMIDIN-1-YL]PIPERIDINE-1-CARBONYL]-4-METHYL-4-[4-(OXETAN-3-YL)PIPERAZIN-1-YL]PENT-2-ENENITRILE” (priority 2023, published 2026)

System: moderate-to-severe chronic spontaneous urticaria (CSU)
Test: Phase 2 CSU study: urticaria activity score over 7 days (UAS7)
Format: in vivo, human
Details: Omalizumab-naïve
From the text: The study comprises a 12 week, randomized, double-blind, placebo-controlled, multi-center, dose-ranging efficacy and safety phase, followed by a 40 week open label extension (OLE) phase (see FIG. 1). The study consists of three phases and an optional OLE phase. […] Clinically, CSU is characterized by the spontaneous and recurrent appearance of pruritic hives. The proposed primary endpoints were the UAS7 at Week 12 in EU and EU reference countries and the ISS7 in the US. Regardless of where a participant was from, all assessments were the same. The UAS7 score is a composite score containing both the HSS7 and the ISS7. This allowed a global assessment of the two key components of urticaria: hives and itch. […] The UAS is a validated PRO measure. […] The daily UAS scores range from 0 to 6 point/day. […] Patients were to complete the UAS using the e-diary. […] The following secondary endpoints were to be analyzed using the same approach as for the primary endpoint: • Change from baseline in UAS7 at Week 4 • Change from baseline in UAS7 at Week 12 (for US and US reference countries) • Change from baseline in ISS7 at Week 12 (except US and US reference countries) • Change from baseline in HSS7 at Week 12 The following responder secondary endpoints were to be analyzed using the Cochran-Mantel-Haenszel test adjusted by region: • Proportion of participants with UAS7<6 at Week 12 • Proportion of participants with UAS7=0 at Week 12 Participants who received selected prohibited medications and/or rescue medications were to be considered as non-responders for time points after the medication usage. For other participants, all available data including those collected during the off-treatment period were to be used to determine the responder/non-responder status. Missing data were to be considered as non-responders.

CC(C)(C=C(C#N)C(=O)N1CCC[C@@H](n2nc(-c3ccc(Oc4ccccc4)cc3F)c3c(N)ncnc32)C1)N1CCN(C2COC2)CC1 [rilzabrutinib, (R)-2-[3-[4-amino-3-(2-fluoro-4-phenoxy-phenyl)pyrazolo[3,4-d]pyrimidin-1-yl]piperidine-1-carbonyl]-4-methyl-4-[4-(oxetan-3-yl)piperazin-1-yl]pent-2-enenitrile]
RRD (%) for rilzabrutinib vs. placebo, UAS7 = 0 (400 mg BID, Week 6): 7.6 %
RRD (%) for rilzabrutinib vs. placebo, UAS7 ≤6 (400 mg BID, Week 6): 8.8 %
Responder n (%), UAS7 = 0 (400 mg BID, Week 6): 4 (11.4) n (%)
Responder n (%), UAS7 ≤6 (400 mg BID, Week 6): 9 (25.7) n (%)
Imputed non-responder n (%), UAS7 = 0 (400 mg BID, Week 7): 2 (5.7) n (%)
Imputed non-responder n (%), UAS7 ≤6 (400 mg BID, Week 7): 2 (5.7) n (%)
Non-responder n (%), UAS7 = 0 (400 mg BID, Week 7): 31 (88.6) n (%)
Non-responder n (%), UAS7 ≤6 (400 mg BID, Week 7): 26 (74.3) n (%)
OR for rilzabrutinib vs. placebo, UAS7 = 0 (400 mg BID, Week 7): 4.254
OR for rilzabrutinib vs. placebo, UAS7 ≤6 (400 mg BID, Week 7): 2.622
RRD (%) for rilzabrutinib vs. placebo, UAS7 = 0 (400 mg BID, Week 7): 8.1 %
RRD (%) for rilzabrutinib vs. placebo, UAS7 ≤6 (400 mg BID, Week 7): 13.6 %
Responder n (%), UAS7 = 0 (400 mg BID, Week 7): 4 (11.4) n (%)
Responder n (%), UAS7 ≤6 (400 mg BID, Week 7): 9 (25.7) n (%)
Imputed non-responder n (%), UAS7 = 0 (400 mg BID, Week 8): 3 (8.6) n (%)
Imputed non-responder n (%), UAS7 ≤6 (400 mg BID, Week 8): 3 (8.6) n (%)
Non-responder n (%), UAS7 = 0 (400 mg BID, Week 8): 29 (82.9) n (%)
Non-responder n (%), UAS7 ≤6 (400 mg BID, Week 8): 22 (62.9) n (%)
OR for rilzabrutinib vs. placebo, UAS7 = 0 (400 mg BID, Week 8): 3.154
OR for rilzabrutinib vs. placebo, UAS7 ≤6 (400 mg BID, Week 8): 2.745
RRD (%) for rilzabrutinib vs. placebo, UAS7 = 0 (400 mg BID, Week 8): 10.7 %
RRD (%) for rilzabrutinib vs. placebo, UAS7 ≤6 (400 mg BID, Week 8): 18.5 %
Responder n (%), UAS7 = 0 (400 mg BID, Week 8): 6 (17.1) n (%)
Responder n (%), UAS7 ≤6 (400 mg BID, Week 8): 13 (37.1) n (%)
Imputed non-responder n (%), UAS7 = 0 (400 mg BID, Week 9): 7 (20.0) n (%)
Imputed non-responder n (%), UAS7 ≤6 (400 mg BID, Week 9): 7 (20.0) n (%)
Non-responder n (%), UAS7 = 0 (400 mg BID, Week 9): 29 (82.9) n (%)
Non-responder n (%), UAS7 ≤6 (400 mg BID, Week 9): 25 (71.4) n (%)
OR for rilzabrutinib vs. placebo, UAS7 = 0 (400 mg BID, Week 9): 2.249
OR for rilzabrutinib vs. placebo, UAS7 ≤6 (400 mg BID, Week 9): 2.797
RRD (%) for rilzabrutinib vs. placebo, UAS7 = 0 (400 mg BID, Week 9): 8.4 %
RRD (%) for rilzabrutinib vs. placebo, UAS7 ≤6 (400 mg BID, Week 9): 15.6 %
Responder n (%), UAS7 = 0 (400 mg BID, Week 9): 6 (17.1) n (%)
Responder n (%), UAS7 ≤6 (400 mg BID, Week 9): 10 (28.6) n (%)
Imputed non-responder n (%), UAS7 = 0 (400 mg BID, Week 10): 8 (22.9) n (%)
Imputed non-responder n (%), UAS7 ≤6 (400 mg BID, Week 10): 8 (22.9) n (%)
Non-responder n (%), UAS7 = 0 (400 mg BID, Week 10): 27 (77.1) n (%)
Non-responder n (%), UAS7 ≤6 (400 mg BID, Week 10): 26 (74.3) n (%)
OR for rilzabrutinib vs. placebo, UAS7 = 0 (400 mg BID, Week 10): 2.159
OR for rilzabrutinib vs. placebo, UAS7 ≤6 (400 mg BID, Week 10): 1.923
RRD (%) for rilzabrutinib vs. placebo, UAS7 = 0 (400 mg BID, Week 10): 10.6 %
RRD (%) for rilzabrutinib vs. placebo, UAS7 ≤6 (400 mg BID, Week 10): 9.9 %
Responder n (%), UAS7 = 0 (400 mg BID, Week 10): 8 (22.9) n (%)
Responder n (%), UAS7 ≤6 (400 mg BID, Week 10): 9 (25.7) n (%)
Imputed non-responder n (%), UAS7 = 0 (400 mg BID, Week 11): 7 (20.0) n (%)
Imputed non-responder n (%), UAS7 ≤6 (400 mg BID, Week 11): 7 (20.0) n (%)
Non-responder n (%), UAS7 = 0 (400 mg BID, Week 11): 30 (85.7) n (%)
Non-responder n (%), UAS7 ≤6 (400 mg BID, Week 11): 25 (71.4) n (%)
OR for rilzabrutinib vs. placebo, UAS7 = 0 (400 mg BID, Week 11): 2.551
OR for rilzabrutinib vs. placebo, UAS7 ≤6 (400 mg BID, Week 11): 1.853
RRD (%) for rilzabrutinib vs. placebo, UAS7 = 0 (400 mg BID, Week 11): 7.4 %
Responder n (%), UAS7 = 0 (400 mg BID, Week 11): 5 (14.3) n (%)
Responder n (%), UAS7 ≤6 (400 mg BID, Week 11): 10 (28.6) n (%)
Imputed non-responder n (%), UAS7 = 0 (400 mg BID, Week 12): 11 (31.4) n (%)
Imputed non-responder n (%), UAS7 ≤6 (400 mg BID, Week 12): 11 (31.4) n (%)
Non-responder n (%), UAS7 = 0 (400 mg BID, Week 12): 30 (85.7) n (%)
Non-responder n (%), UAS7 ≤6 (400 mg BID, Week 12): 28 (80.0) n (%)
OR for rilzabrutinib vs. placebo, UAS7 = 0 (400 mg BID, Week 12): 1.258
OR for rilzabrutinib vs. placebo, UAS7 ≤6 (400 mg BID, Week 12): 1.904
RRD (%) for rilzabrutinib vs. placebo, UAS7 = 0 (400 mg BID, Week 12): 2.6 %
RRD (%) for rilzabrutinib vs. placebo, UAS7 ≤6 (400 mg BID, Week 12): 7.9 %
Responder n (%), UAS7 = 0 (400 mg BID, Week 12): 5 (14.3) n (%)
Responder n (%), UAS7 ≤6 (400 mg BID, Week 12): 7 (20.0) n (%)
Imputed non-responder n (%), UAS7 = 0 (400 mg QPM, Week 1): 0 n (%)
Imputed non-responder n (%), UAS7 ≤6 (400 mg QPM, Week 1): 0 n (%)
Non-responder n (%), UAS7 = 0 (400 mg QPM, Week 1): 37 (100) n (%)
